Test results reported in US20230181475A1, “COMPOSITION COMPRISING METHYLFOLATE” (ALFASIGMA S.P.A., priority 2020, published 2023).

What was measured:
[1] = system: C57Black/6J mice subjected to CUS; assay: Forced swimming test (FST) in mice subjected to Chronic Unpredictable Stress (CUS); format: in vivo; conditions: MTHF 3 mg/kg, LAC 30 mg/kg; for effect on immobility time in FST / effects of chronic stress (in words): 3 days of treatment; for Total Immobility Time (sec) + SD: i.p. 3 days of treatment, last 4 minutes of 6 min test, n=8
Description: The animal study was performed in a validate experimental model subject to Chronic Unpredictable Stress (CUS), as described in J H Cryan et al. in J. Neubiorev. 2005, 03, 009, for a period of 4 weeks to induce the depressive phenotype CUS. The CUS allows the depressive phenotype responsive to standard antidepressant treatments to be reproduced in vivo in mammals. The animals were divided in five groups and the group which received the combination of MTHF with LAC was compared with the groups which received MTHF and LAC separately. All the groups were compared with the group which received saline solution and the group which not submitted to CUS.
The mice were subjected to CUS for 4 weeks, and the drug treatment started at the 3rd week of CUS and maintained until the end of the 4-week treatment.
To assess the antidepressant effects of the selected product LAC and MTHF the animals were submitted to the Forced swimming test (“FST”) as described in J H Cryan et al. in J. Neubiorev. 2005, 03, 009 and measured the Total Immobility Time expressed in the […] of animals.
Forty, 7-week-old male C57Black/6J, mice were subjected to CUS (“Chronic Unpredictable Mild Stress”), a validate model that allow the depressive phenotype as described in J H Cryan et al. in J. Neubiorev. 2005, 03, 009.
The mice were subjected to CUS for 4 weeks, during which different types of stress were applied to the animals twice-a-day in a random and unpredictable manner: one session during the day lasting 1-3 hours, and one session during the night (lasting 12 hours), with at least 6 hours of interval between the two sessions. […]
To assess the antidepressant behavioural effects of the selected product LAC and MEF the animals were submitted to the Forced swimming test (“FST”) as described in J H Cryan et al. in J. Neubiorev. 2005, 03, 009 and the Total Immobility Time measured in the 5 group of animals.
During the test the mice were placed individually for 6 minutes in transparent plexiglass cylinders (25 cm high and 22 cm in diameter) filled with warm water (28° C.), in sufficient quantity to prevent the mouse from touching the bottom of the cylinder with hind legs. The animal was videotaped, and then the immobility time (expressed in seconds) was measured during the last 4 minutes of the test.

BDNF protein = assay: Western blot of BDNF protein in frontal cortex of CUS mice; format: in vivo; conditions: 14 days i.p. treatment, MTHF 3 mg/kg, LAC 30 mg/kg
Description: Mice after 4 weeks of CUS and 2 week of pharmacological treatments, as described before, at the end of Week 5 the animals were sacrificed and the level of BDNF protein were measured in Frontal Cortex by western blot.
Drug treatment started at the 3rd week of CUS and it was maintained for 2 weeks, the study ending at Week 5 for the start of the experiment. Behavioural tests were performed 3 days after the beginning of treatments, while post-mortem protein studies in the mouse brain were performed after 14 days of treatment, at the end of Week 5.
Mice were treated as described in Example 19. After 4 weeks of CUS and 2 week of pharmacological treatments (as described in Example 19), at the end of Week 5 the animals were sacrificed and the level of BDNF protein were measured in Hippocampus and Frontal Cortex by western blot. Table 28 reports the protein levels of BDNF, a neuronal trophic factor related to chronic stress and depression, in the Frontal Cortex of mice.
The antibody recognizes the mature form of the 17 KDa BDNF.

Compound | effect on immobility time in FST / effects of chronic stress (in words) [1] | Total Immobility Time (sec) + SD [1] | Western blot BDNF in frontal cortex, Optical Density bands + SD (BDNF protein)
CC(=O)O[C@H](CC(=O)[O-])C[N+](C)(C)C [LAC, Acetyl L-carnitine] | not antagonised | 245.75 + 30.34 sec | 113.29 + 28.95
calcium L-5-methyl-(6S)-tetrahydrofolate [MTHF] | not antagonised | 230 + 14.20 sec | 138.46 + 18.26
